# Marks after values point to notes of the source that are not given here.
# Experiments:
# [1] = tested on: BP63 (L. plantarum PN0512ΔpyrFΔfabZ1); test: Fatty acid supplements supporting growth of the fabZ1 mutant; assay type: cell-based; settings: fatty acid supplied at 80 mg/L; overnight incubation, OD600
# Experimental: With 100 or 200 mg/liter of oleic acid the growth of BP63 was equivalent to that of the fabZ1^+ control strain, BP15. […] Thus, we conclude that fabZ1 in L. plantarum has the same function as FabN in E. faecalis (Wang, H. and Cronan, J. E. 2004. Functional replacement of the FabA and FabB proteins of Escherichia coli fatty acid synthesis by Enterococcus faecalis FabZ and FabF homologs. J. Biol. Chem. 279, 34489-95). To further test the range of fatty acid supplements that support growth of the fabZ1 mutant, several other fatty acids were supplied at 80 mg/L to the semi-synthetic LAB medium as described above. BP63 and the parental control BP15 were inoculated from the working stocks. After overnight incubation, the OD600 was measured. The growth of BP15 was not inhibited by any of the fatty acids tested. The Table 9 below summarizes the results for the fabZ1 mutant strain, BP63.
# [2] = tested on: L. plantarum strain PN0512; test: Growth yield (OD600) in isobutanol, stearic acid fed and unfed cultures; assay type: cell-based, Lactobacillus plantarum; settings: for OD600 fed Stearic: stearic acid 50 mg per liter, 25 hours, 30° C.
# Experimental: For growth yield experiments, 5 ml of medium with test fatty acids (10-500 mg per liter) and varying concentrations of isobutanol in 15 ml screw cap tubes was inoculated with 12.5 μl of the working stock giving an initial OD600 of 0.012. The caps were tightly sealed and incubated at 30° C. on a roller drum for 20 to 26 hours, at which time 1.0 ml was removed and OD600 was measured with a blank of medium amended with the fatty acid. All solvent concentrations are reported as % (w/v).
# Growth of L. plantarum cultures in the media described in General Methods and containing varying concentrations of isobutanol was measured and compared with the cultures fed (supplemented with) stearic acid at a final concentration of 50 mg per liter of medium. Cultures were prepared as described in General Methods.
# [3] = tested on: L. plantarum strain PN0512; test: FAME analysis of membrane lipids of stearic acid fed cultures; assay type: cell-based, Lactobacillus plantarum
# Experimental: The membrane lipids were extracted by modified Bligh and Dyer protocol (Can. J. Biochem. Physiol. (1959) 37:911-17). The cell pellet prepared as described above was suspended in a mixture of 0.5 ml CHCl3 and 1 ml CH3OH, and transferred to a 13×100 mm tube with a screw top cap. The cap was screwed on about ¾ of the way (i.e., not tight), and the tube was incubated at 40° C. for 30 min. The tube was cooled and an additional 0.5 ml CHCl3 and 1 ml H2O were added the mixture. […] The two phases were equilibrated by vortexing. The two phases were allowed to separate; then the lower CHCl3 layer was removed and transferred to another 13×100 mm tube with a screw top cap. With the cap removed, the CHCl3 was evaporated under a stream of N2. Methyl esters of the fatty acids in the residue were then formed using one of the following procedures.
# 1 ml freshly made 1.0 M CH3ONa in CH3OH was added to the tubes containing lipid samples extracted by the Bligh and Dyer method as described above. The caps were placed on tubes, screwed on about ¾ of the way (i.e., not tight), then the tubes were heated at 60° C. for 30 minutes. The mixture was chilled in ice bath and 1 ml of 1.0 N HCl was added to the solution in the tubes. The pH of the resulting solution was checked with pH paper to make sure a pH of 7 or lower had been reached. 0.5 ml hexane was added into the test tube and mixed well by vortexing. The tubes were allowed to sit for a few minutes until two phases formed. The top hexane layer was removed and placed in a separate tube for storage until analysis, which was done by GC/FID and/or GC/MS. 2 μl of the hexane layer was injected into an Agilent GC (model 6890)/MS (model 5973). For routine samples a Supelco Equity-1 column (15 m×0.25 mm×0.25 μm film thickness; catalog #28045-U) was used with an FID detector (GC/FID). When an unknown peak needed to be identified, the same column was used with an Agilent MSD detector (GC/MS). When samples requiring difficult separations that were impossible to achieve on a 15 m column were analyzed (e.g., the separation of oleic from elaidic acid), a Supelco S-2380 column (100 m×0.25 mm×0.25 μm film thickness; catalog #24317) was used.
# For preparation of samples for FAME analysis, the working stock was used to inoculate 40 ml of medium containing free fatty acids and the cultures were grown overnight. The cell pellet was harvested by centrifugation and was washed twice with phosphate buffered saline (PBS, Bio-Rad Laboratories, Hercules, Calif.) and 5 g/l BSA, then two more times with PBS. Cell pellets were stored at −80° C. until analyzed by FAME using a transesterification protocol, which quantifies fatty acids that have been incorporated in membrane lipids, but not free fatty acids associated with the cell membrane. The FAME analysis is described by Christie (1993) (In Advances in Lipid Methodology—Two, pp. 69-111, Ed. W. W. Christie, Oily Press, Dundee).
# Cultures of Lactobacillus plantarum strain PN0512 were grown in media containing stearic acid along with control cultures (with no added fatty acids to the media), as described in General Methods. The membrane composition was analyzed by FAME analysis as described in General Methods as well. The results of FAME analyses shown in Table 6 indicate that stearic acid (C18:0), when added to the growth medium of a culture of strain PN0512, was incorporated into the cell membrane thereby resulting in a substantial increase of the amount of stearic fatty acid in the cell membrane.
smiles,measurement,setting,value
"CCCCCCCC[C@@H]1C[C@@H]1CCCCCCCC(=O)O [dihydrosterculic, Dihydrosterculic acid]",Supports growth of BP63,[1],YES
CCCCCCCC/C=C\CCCCCCCCCCCC(=O)O [Erucic],Supports growth of BP63,[1],Very slight growth
CCCCC/C=C\C/C=C\CCCCCCCC(=O)O [Linoleic],Supports growth of BP63,[1],YES
"CCCCCCCCCCCCCCCCCC(=O)O [Stearic Acid, Octadecanoic Acid]",OD600 Ratio OD600fed/OD600unfed control,[2]; 0 % w/v isobutanol,1.08
same,OD600 fed Stearic,[2]; 0 % w/v isobutanol,1.452
same,OD600 Ratio OD600fed/OD600unfed control,[2]; 2.3 % w/v isobutanol,1.18
same,OD600 fed Stearic,[2]; 2.3 % w/v isobutanol,0.860
same,OD600 Ratio OD600fed/OD600unfed control,[2]; 2.5 % w/v isobutanol,1.23
same,OD600 fed Stearic,[2]; 2.5 % w/v isobutanol,0.422
same,OD600 Ratio OD600fed/OD600unfed control,[2]; 2.7 % w/v isobutanol,1.57^b
same,OD600 fed Stearic,[2]; 2.7 % w/v isobutanol,0.206
same,OD600 Ratio OD600fed/OD600unfed control,[2]; 2.9 % w/v isobutanol,1.92
same,OD600 fed Stearic,[2]; 2.9 % w/v isobutanol,0.098
same,growth yield of stearic acid fed cultures compared with control cultures,[2]; all tested concentrations of isobutanol,greater
same,"Membrane Fatty Acid Effect (stearic acid fed)/(stearic acid not fed), C16:0",[3]; ratio of molar %,0.52
same,"Membrane Fatty Acid Effect (stearic acid fed)/(stearic acid not fed), C16:1",[3]; ratio of molar %,1.30
same,"Membrane Fatty Acid Effect (stearic acid fed)/(stearic acid not fed), C18:0",[3]; ratio of molar %,33.2
same,"Membrane Fatty Acid Effect (stearic acid fed)/(stearic acid not fed), C18:1, cis",[3]; ratio of molar %,0.78
same,"Membrane Fatty Acid Effect (stearic acid fed)/(stearic acid not fed), cyc-C19:0",[3]; ratio of molar %,1.23
same,"Membrane Fatty Acid Content, C16:0",[3]; stearic acid (C18:0) fed,14.1 molar %
same,"Membrane Fatty Acid Content, C16:1",[3]; stearic acid (C18:0) fed,10.0 molar %
same,"Membrane Fatty Acid Content, C18:0",[3]; stearic acid (C18:0) fed,16.6 molar %
same,"Membrane Fatty Acid Content, C18:1, cis",[3]; stearic acid (C18:0) fed,34.4 molar %
same,"Membrane Fatty Acid Content, cyc-C19:0",[3]; stearic acid (C18:0) fed,25.0 molar %
same,increase of molar % of stearic acid in the cell membrane,[3]; with stearic acid feeding,more than 30 fold
same,increase of molar ratio saturated/unsaturated fatty acids,[3]; with stearic acid feeding,16%
same,"molar ratio of saturated fatty acids (C16:0 and C18:0) to unsaturated fatty acids (C16:1 and C18:1, cis)",[3]; with stearic acid feeding (0.53 without),0.69
same,Supports growth of BP63,[1],no
"CCCCCCCCCCCCCC(=O)O [Myristic, Tetradecanoic Acid]",Supports growth of BP63,[1],no
CCCCCCCC/C=C\CCCCCCCCCC(=O)O [cis 11-eicosenoic],Supports growth of BP63,[1],YES
CCCCCCCC/C=C/CCCCCCCC(=O)O [Elaidic],Supports growth of BP63,[1],YES
"CCCCC/C=C\C/C=C\CCCCCCCCCC(=O)O [cis-11,14-Eicosadienoic]",Supports growth of BP63,[1],Partial growth
CCCCCC/C=C\CCCCCCCCCC(=O)O [cis-Vaccenic],Supports growth of BP63,[1],YES
CCCCCC/C=C\CCCCCCCC(=O)O [Palmitoleic],Supports growth of BP63,[1],YES
"CCCCCCCCCCCCCCCC(=O)O [Palmitic, Hexadecanoic Acid]",Supports growth of BP63,[1],no
CCCCCC/C=C\CCCCCCCCCCCC(=O)O [cis 13 eicosenoic],Supports growth of BP63,[1],no

# — patent US20110195505A1, “BACTERIAL STRAINS FOR BUTANOL PRODUCTION” (priority 2009, published 2011)
